Measurements as given in PMC4490028 (Cancer research, 2015).

Key:
Abcc2 [1] = assay: Pharmacokinetics; conditions: after oral sorafenib 10 mg/kg
Oatp1a/1b = assay: Plasma and liver pharmacokinetics after oral sorafenib in Oatp1a/1b; format: in vivo, mouse; conditions: oral sorafenib 10 mg/kg; Oatp1a/1b(−/−) mice
Abcc3 = assay: Plasma and liver pharmacokinetics after oral sorafenib in Abcc3; format: in vivo, mouse; conditions: oral sorafenib 10 mg/kg; Abcc3(−/−) mice
Oatp1a/1b;Abcc3 = assay: Plasma and liver pharmacokinetics after oral sorafenib in Oatp1a/1b; format: in vivo, mouse; conditions: oral sorafenib 10 mg/kg; Oatp1a/1b;Abcc3(−/−) mice
[2] = tested on: mouse intestinal β-glucuronidases; assay: Ex vivo cecal incubations of SG; format: in vitro ADME; conditions: SG 2 µM, 6-hour period
[3] = format: in vivo, mouse; conditions: oral SG 10 mg/kg
Oatp1a/1b;Abcc2 = conditions: oral sorafenib 10 mg/kg; Oatp1a/1b;Abcc2(−/−) mice
Oatp1a/1b;Abcc2;Abcc3 = conditions: oral sorafenib 10 mg/kg; Oatp1a/1b;Abcc2;Abcc3(−/−) mice
[4] = cited from earlier work
[5] = Sorafenib plasma concentrations in FVB wildtype mice after oral sorafenib; conditions: sorafenib 10 mg/kg oral
rat Abcc2 = rat Abcc2 (Rattus norvegicus, UniProt Q63120); assay: In vitro vesicular transport, inside-out Sf9 vesicles expressing rat Abcc2; conditions: 5-min incubation, ATP 4 mM
human ABCC2 = human ABCC2 (Homo sapiens, UniProt Q92887); assay: In vitro vesicular transport, inside-out Sf9 vesicles expressing human ABCC2
Abcc2 [6] = assay: Pharmacokinetics
human ABCC3 = human ABCC3 (Homo sapiens, UniProt O15438); assay: In vitro vesicular transport, inside-out Sf9 vesicles expressing human ABCC3; format: in vitro ADME
human ABCC4 = molecular target: T1, human ABCC4 (Homo sapiens, UniProt O15439); assay: In vitro vesicular transport, inside-out Sf9 vesicles expressing human ABCC4
T1 sequence (O15439 1-1325): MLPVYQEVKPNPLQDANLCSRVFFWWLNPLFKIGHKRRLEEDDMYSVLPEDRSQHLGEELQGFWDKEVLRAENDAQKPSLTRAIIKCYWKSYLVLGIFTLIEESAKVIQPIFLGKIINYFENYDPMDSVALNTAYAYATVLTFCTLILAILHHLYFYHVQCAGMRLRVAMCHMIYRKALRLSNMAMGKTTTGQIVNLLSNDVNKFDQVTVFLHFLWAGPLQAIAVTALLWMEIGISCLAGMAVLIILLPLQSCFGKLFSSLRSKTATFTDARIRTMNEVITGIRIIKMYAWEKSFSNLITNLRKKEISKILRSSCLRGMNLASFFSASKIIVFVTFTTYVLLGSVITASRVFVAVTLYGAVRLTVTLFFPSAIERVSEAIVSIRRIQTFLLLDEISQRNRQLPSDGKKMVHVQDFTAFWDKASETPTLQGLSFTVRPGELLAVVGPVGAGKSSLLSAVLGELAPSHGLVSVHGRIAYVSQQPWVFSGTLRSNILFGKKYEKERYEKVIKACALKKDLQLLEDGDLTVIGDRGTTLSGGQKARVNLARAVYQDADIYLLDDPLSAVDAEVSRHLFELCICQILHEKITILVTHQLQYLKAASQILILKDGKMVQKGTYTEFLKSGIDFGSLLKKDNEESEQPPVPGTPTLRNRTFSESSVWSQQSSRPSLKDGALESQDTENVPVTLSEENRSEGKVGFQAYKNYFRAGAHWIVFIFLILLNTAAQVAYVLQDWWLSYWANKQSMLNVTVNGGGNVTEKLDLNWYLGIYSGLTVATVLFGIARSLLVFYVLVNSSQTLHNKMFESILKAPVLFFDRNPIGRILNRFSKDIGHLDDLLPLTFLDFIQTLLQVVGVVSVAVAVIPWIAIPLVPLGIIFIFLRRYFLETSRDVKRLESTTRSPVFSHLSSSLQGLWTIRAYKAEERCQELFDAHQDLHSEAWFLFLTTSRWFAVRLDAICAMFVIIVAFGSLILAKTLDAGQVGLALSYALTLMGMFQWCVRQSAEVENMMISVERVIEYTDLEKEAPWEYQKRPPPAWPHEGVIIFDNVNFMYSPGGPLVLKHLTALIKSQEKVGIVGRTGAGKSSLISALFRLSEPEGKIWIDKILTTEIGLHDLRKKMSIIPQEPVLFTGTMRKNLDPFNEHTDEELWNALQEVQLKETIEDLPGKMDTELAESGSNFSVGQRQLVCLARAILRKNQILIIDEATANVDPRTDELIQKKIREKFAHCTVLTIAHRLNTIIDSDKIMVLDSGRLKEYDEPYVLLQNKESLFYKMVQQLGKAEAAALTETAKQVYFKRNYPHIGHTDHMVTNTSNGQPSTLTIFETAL

Abcc4 = assay: Plasma and liver pharmacokinetics after oral sorafenib in Abcc4; conditions: after oral sorafenib 10 mg/kg; Abcc4(−/−) mice
mouse Abcc2 = mouse Abcc2 (Mus musculus, UniProt Q8VI47); assay: In vitro vesicular transport, inside-out Sf9 vesicles expressing mouse Abcc2; conditions: SG 10 µM, 5-min incubation, ATP 4 mM
Abcc3;Abcc4 = assay: Plasma and liver pharmacokinetics after oral sorafenib in Abcc3; conditions: after oral sorafenib 10 mg/kg; Abcc3;Abcc4(−/−) mice
[7] = rifampin 100 µM, SG 10 µM, 5 min
[8] = SG 10 µM, 5-min incubation, ATP 4 mM
[9] = increasing SG concentrations, 5 min, ATP 4 mM
[10] = read-out: Km of SG transport, increasing SG concentrations, 5 min, ATP 4 mM

Chain of human ABCC2 (Q92887 whole entry): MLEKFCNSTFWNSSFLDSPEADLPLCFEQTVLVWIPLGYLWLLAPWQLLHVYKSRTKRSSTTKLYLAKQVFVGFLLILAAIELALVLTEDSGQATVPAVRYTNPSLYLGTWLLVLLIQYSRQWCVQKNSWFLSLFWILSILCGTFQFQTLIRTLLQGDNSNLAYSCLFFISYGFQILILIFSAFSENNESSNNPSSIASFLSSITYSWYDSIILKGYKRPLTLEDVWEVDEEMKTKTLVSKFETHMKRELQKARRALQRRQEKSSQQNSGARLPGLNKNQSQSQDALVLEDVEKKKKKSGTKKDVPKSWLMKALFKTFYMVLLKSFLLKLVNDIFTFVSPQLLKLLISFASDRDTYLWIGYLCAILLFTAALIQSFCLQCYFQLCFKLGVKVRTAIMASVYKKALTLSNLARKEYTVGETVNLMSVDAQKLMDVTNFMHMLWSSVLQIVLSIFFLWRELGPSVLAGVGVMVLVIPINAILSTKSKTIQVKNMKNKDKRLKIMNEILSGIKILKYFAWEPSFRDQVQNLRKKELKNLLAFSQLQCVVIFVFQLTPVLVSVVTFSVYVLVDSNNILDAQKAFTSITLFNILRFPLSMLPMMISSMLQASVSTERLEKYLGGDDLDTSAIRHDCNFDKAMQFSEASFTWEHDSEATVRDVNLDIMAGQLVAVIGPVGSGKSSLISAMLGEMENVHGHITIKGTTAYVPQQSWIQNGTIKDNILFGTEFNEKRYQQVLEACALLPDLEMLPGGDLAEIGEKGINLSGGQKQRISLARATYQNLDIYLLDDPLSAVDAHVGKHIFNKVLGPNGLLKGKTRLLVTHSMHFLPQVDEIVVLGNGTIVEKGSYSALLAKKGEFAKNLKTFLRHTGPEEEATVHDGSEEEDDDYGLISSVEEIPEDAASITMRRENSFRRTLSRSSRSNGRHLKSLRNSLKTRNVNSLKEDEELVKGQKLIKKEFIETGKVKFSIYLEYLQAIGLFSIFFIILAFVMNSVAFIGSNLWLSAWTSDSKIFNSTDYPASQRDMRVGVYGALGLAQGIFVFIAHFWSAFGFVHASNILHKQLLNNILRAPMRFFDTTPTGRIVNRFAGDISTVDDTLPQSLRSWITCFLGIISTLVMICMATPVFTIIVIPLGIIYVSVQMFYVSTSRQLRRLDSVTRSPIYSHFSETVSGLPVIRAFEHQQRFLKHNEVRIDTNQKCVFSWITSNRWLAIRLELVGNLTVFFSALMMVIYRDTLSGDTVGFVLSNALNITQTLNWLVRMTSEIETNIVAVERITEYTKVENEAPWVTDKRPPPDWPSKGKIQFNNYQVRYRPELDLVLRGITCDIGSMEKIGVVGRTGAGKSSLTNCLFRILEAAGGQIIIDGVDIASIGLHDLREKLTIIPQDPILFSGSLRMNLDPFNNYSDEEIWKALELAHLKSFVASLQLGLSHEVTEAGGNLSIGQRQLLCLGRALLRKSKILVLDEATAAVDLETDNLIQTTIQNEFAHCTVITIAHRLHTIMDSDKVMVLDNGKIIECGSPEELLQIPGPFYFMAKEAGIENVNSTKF
Chain of human ABCC3 (O15438 whole entry): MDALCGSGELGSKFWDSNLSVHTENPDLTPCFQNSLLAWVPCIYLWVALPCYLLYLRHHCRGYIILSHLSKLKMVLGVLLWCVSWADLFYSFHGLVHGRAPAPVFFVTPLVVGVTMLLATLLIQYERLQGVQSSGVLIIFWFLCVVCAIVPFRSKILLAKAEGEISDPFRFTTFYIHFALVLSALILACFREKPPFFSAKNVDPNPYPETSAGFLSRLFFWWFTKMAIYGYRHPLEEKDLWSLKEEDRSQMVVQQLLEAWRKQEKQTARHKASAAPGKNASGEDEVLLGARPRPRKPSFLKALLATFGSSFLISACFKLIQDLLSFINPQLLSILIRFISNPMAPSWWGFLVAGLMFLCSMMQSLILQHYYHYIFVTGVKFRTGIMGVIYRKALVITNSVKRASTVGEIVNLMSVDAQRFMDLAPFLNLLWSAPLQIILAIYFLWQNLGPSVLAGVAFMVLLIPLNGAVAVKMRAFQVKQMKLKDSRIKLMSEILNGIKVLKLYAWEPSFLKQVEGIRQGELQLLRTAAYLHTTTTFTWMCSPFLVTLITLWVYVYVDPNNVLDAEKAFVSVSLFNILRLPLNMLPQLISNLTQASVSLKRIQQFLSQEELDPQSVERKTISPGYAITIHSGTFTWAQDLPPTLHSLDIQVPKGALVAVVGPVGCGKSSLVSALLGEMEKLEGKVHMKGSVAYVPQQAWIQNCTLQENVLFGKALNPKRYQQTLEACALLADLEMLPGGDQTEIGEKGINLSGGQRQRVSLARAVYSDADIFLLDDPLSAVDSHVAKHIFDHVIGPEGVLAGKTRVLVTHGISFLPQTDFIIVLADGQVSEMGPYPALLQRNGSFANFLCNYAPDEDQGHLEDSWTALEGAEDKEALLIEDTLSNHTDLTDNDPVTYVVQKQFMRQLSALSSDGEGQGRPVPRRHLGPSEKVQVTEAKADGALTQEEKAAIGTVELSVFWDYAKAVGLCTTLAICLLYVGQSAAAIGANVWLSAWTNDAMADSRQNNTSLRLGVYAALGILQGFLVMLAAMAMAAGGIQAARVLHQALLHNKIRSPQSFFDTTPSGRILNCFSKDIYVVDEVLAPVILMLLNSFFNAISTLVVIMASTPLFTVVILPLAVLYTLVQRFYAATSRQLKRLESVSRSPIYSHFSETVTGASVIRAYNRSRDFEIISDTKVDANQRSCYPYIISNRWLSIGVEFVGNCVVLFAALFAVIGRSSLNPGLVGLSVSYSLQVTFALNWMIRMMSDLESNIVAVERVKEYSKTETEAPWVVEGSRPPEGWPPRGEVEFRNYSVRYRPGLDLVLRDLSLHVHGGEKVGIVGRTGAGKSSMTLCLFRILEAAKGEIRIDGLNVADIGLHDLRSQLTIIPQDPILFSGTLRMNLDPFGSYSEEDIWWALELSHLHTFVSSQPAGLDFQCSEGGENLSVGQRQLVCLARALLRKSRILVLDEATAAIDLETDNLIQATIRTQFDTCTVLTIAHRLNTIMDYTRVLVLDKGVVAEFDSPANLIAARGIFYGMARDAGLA
Chain of rat Abcc2 (Q63120 whole entry): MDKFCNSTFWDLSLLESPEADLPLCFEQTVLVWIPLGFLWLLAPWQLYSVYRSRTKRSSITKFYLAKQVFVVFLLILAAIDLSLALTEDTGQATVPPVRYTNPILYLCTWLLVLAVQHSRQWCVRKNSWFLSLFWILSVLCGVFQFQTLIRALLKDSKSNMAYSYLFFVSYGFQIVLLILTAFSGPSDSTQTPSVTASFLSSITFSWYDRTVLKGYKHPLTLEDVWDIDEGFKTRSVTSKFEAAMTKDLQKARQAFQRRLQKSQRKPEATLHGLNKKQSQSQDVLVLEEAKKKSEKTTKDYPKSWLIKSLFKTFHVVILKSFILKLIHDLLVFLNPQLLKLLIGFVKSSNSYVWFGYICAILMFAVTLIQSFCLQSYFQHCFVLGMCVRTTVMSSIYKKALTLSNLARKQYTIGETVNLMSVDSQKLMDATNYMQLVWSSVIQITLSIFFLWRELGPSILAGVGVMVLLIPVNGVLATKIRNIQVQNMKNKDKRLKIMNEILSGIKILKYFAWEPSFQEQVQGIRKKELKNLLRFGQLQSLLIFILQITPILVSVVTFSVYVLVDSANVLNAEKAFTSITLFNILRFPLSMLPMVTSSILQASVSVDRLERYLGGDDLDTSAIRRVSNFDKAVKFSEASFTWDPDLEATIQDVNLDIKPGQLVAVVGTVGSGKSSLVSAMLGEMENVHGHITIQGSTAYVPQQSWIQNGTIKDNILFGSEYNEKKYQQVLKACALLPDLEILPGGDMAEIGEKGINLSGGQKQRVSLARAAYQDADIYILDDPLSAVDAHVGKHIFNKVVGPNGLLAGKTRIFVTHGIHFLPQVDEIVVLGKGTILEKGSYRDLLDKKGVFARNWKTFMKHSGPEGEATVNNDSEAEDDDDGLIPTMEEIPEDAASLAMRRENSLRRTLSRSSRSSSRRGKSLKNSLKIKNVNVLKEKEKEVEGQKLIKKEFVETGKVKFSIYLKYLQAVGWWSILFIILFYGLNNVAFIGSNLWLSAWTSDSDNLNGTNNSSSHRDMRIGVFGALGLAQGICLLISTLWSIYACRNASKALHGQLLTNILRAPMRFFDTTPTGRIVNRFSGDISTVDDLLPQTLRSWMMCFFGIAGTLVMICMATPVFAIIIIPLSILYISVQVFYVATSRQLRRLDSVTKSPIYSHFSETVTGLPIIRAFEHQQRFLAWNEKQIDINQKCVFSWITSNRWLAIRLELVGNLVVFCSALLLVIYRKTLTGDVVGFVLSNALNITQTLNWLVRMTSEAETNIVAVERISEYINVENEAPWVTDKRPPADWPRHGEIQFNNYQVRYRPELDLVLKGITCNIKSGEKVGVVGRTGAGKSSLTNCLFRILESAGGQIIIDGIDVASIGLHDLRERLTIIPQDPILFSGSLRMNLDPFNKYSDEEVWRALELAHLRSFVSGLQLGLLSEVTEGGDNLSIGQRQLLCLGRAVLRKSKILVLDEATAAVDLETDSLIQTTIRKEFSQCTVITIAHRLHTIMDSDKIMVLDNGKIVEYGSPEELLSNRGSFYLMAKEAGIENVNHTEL

CNC(=O)c1cc(Oc2ccc(NC(=O)Nc3ccc(Cl)c(C(F)(F)F)c3)cc2)cc[n+]1[O-] [sorafenib-N-oxide]
increase in plasma levels in Abcc2(−/−) versus wildtype rats (Abcc2 [1]): ~ 2 fold

CNC(=O)c1cc(Oc2ccc(NC(=O)Nc3ccc(Cl)c(C(F)(F)F)c3)cc2)ccn1 [sorafenib]
liver levels of sorafenib versus wildtype (Oatp1a/1b): similar
plasma levels of sorafenib versus wildtype (Oatp1a/1b): not substantially altered
plasma sorafenib exposure, lower than wildtype (Oatp1a/1b): ~ 25%
liver levels of sorafenib versus wildtype (Abcc3): similar
plasma levels of sorafenib versus wildtype (Abcc3): not substantially altered
liver levels of sorafenib versus wildtype (Oatp1a/1b;Abcc3): similar
plasma levels of sorafenib versus wildtype (Oatp1a/1b;Abcc3): not substantially altered
sorafenib levels formed from SG in crude suspension of cecal content [2]: corresponding increase
time until sorafenib was detected in plasma after SG administration ([3]; initial study): 8 h
sorafenib peak levels in plasma of vehicle-pretreated mice ([3]; at 8 hours after SG administration): 226 to 897 ng/mL
sorafenib levels in plasma of neomycin-pretreated mice ([3]; neomycin 200 mg/kg twice daily for 5 days, 8 to 24 hours): below the limit of quantification
time of sorafenib peak levels after SG administration ([3]; vehicle-pretreated mice): 8 h
plasma and liver levels of sorafenib (Oatp1a/1b;Abcc2): not substantially altered
plasma and liver levels of sorafenib (Oatp1a/1b;Abcc2;Abcc3): not substantially altered
average sorafenib plasma steady-state concentrations ([4]; adults and children treated at 400 mg or 200 mg/m^2 twice daily): 10 µM
decrease of systemic exposure to sorafenib by neomycin treatment ([4]; neomycin treatment in humans): more than 50%
sorafenib plasma steady-state concentrations [5]: 6 to 10 µM
transport of sorafenib (rat Abcc2; sorafenib 10 µM): weakly
sorafenib uptake relative to control vesicles (human ABCC2; sorafenib 10 µM, 5-min incubation, ATP 4 mM): moderately increased
increase in plasma levels in Abcc2(−/−) versus wildtype rats (Abcc2 [1]): ~ 2 fold
biliary output of sorafenib, Abcc2(−/−) compared to wildtype mice (Abcc2 [6]; oral sorafenib 10 mg/kg): not associated with altered
liver uptake of sorafenib, Abcc2(−/−) compared to wildtype mice (Abcc2 [6]; oral sorafenib 10 mg/kg): not associated with altered
plasma disposition of sorafenib, Abcc2(−/−) compared to wildtype mice (Abcc2 [6]; oral sorafenib 10 mg/kg): not associated with altered

CO[C@H]1/C=C/O[C@@]2(C)Oc3c(C)c(O)c4c(O)c(c(/C=N/N5CCN(C)CC5)c(O)c4c3C2=O)NC(=O)/C(C)=C\C=C\[C@H](C)[C@H](O)[C@@H](C)[C@@H](O)[C@@H](C)[C@H](OC(C)=O)[C@@H]1C [rifampin]
inhibition of ABCC3-mediated SG uptake (human ABCC3; [7]): sensitive to inhibition
inhibition of ABCC2-mediated SG uptake (human ABCC2; [7]): sensitive to inhibition
inhibition of ABCC4-mediated SG uptake (human ABCC4; [7]): sensitive to inhibition

sorafenib-glucuronide [SG]
uptake of SG relative to control vesicles (human ABCC3; [8]): efficiently increased
transport efficiency, lower than that observed for ABCC2 (human ABCC3; SG transport): about 7 fold
Vmax of SG transport (human ABCC3; [9]): 196 ± 44 pmol/min/mg
Km (human ABCC3; [10]): 186 ± 72 µM
concentrations of SG in plasma and liver, effect of Abcc4 deficiency (Abcc4): not substantially affected
uptake of SG relative to control vesicles (rat Abcc2; SG 10 µM): efficiently increased
uptake of SG relative to control vesicles (human ABCC2; [8]): efficiently increased
maximal velocity (Vmax) of SG transport (human ABCC2; [9]): 155 ± 11 pmol/min/mg
uptake of SG relative to control vesicles (human ABCC4; [8]): efficiently increased
transport efficiency, lower than that observed for ABCC2 (human ABCC4; SG transport): about 7 fold
Vmax of SG transport (human ABCC4; [9]): 221 ± 11 pmol/min/mg
Km (human ABCC4; [10]): 146 ± 14 µM
uptake of SG relative to control vesicles (mouse Abcc2): efficiently increased
concentrations of SG in plasma and liver, effect of Abcc4 deficiency (Abcc3;Abcc4): not substantially affected
SG in bile of wildtype or Abcc2(−/−) rats (Abcc2 [1]): not detected
SG in plasma of wildtype or Abcc2(−/−) rats (Abcc2 [1]): not detected
SG liver-to-plasma ratio in Abcc2(−/−) versus wildtype mice (Abcc2 [6]; after oral sorafenib 10 mg/kg): decreased
increase in SG liver concentrations in Abcc2(−/−) versus wildtype mice (Abcc2 [6]; after oral sorafenib 10 mg/kg): ~ 3 fold
increase of plasma levels of SG in Abcc2(−/−) versus wildtype mice (Abcc2 [6]; after oral sorafenib 10 mg/kg): ~ 350 fold
reduction of biliary output of SG in Abcc2(−/−) versus wildtype mice (Abcc2 [6]; after oral sorafenib 10 mg/kg, bile collected for 2 hours): ~ 12 fold
urinary excretion (Abcc2 [6]; after oral sorafenib 10 mg/kg, irrespective of Abcc2 status): minor route of elimination
